Reference: US20250051275A1, “PYRROLE DERIVATIVE OR PHARMACEUTICALLY OR SITOLOGICALLY ACCEPTABLE SALTS THEREOF, AND COMPOSITION FOR PREVENTION, AMELIORATION OR TREATMENT OF GASTROINTESTINAL DISORDERS COMPRISING SAME AS ACTIVE INGREDIENT” (HANA PHARM CO., LTD., priority 2021, published 2025)
Where two headings read alike, the source gives them in different places.

How the values were obtained:
[1] = Oral bioavailability in beagle dogs; assay type: in vivo; conditions: dog, plasma; for AUC(0-t) / half-life / Cmax / Tmax: mean n=3; for bioavailability: po, read-out: BA (bioavailability)
Experimental: To evaluate oral bioavailability, Example 7 was administered intravenously or orally to beagle dogs.
For the intravenous administration group, blood samples were obtained from peripheral veins 1 minute, 5 minutes, 15 minutes, 30 minutes, 1 hour, 2 hours, 4 hours, 8 hours, and 24 hours after drug administration. For the oral administration group, blood samples were obtained from peripheral veins 15 minutes, 30 minutes, 1 hour, 2 hours, 4 hours, 6 hours, 8 hours, 12 hours, and 24 hours after drug administration. Blood samples collected at different times were treated with EDTA and centrifuged (2 to 8° C., 3,200 g, 10 minutes) to separate plasma.
The amount of administered compound into the plasma sample was quantified by using LC-MS/MS. Pharmacokinetic parameters were obtained by using a non-compartmental model in Phoenix WinNonlin 6.3 software.
‘AUC0-last’ indicates the area under the time curve, ‘Cmax’ indicates the highest plasma concentration, ‘Tmax’ indicates the time to reach the highest plasma concentration, ‘T1/2’ indicates the half-life, and ‘BA’ indicates the bioavailability.

[2] = target: proton pump (H+/K+-ATPase) (Sus scrofa (Pig), UniProt P19156); test: Inhibitory activity on proton pump (H+/K+-ATPase) activity; assay type: biochemical; conditions: porcine gastric mucosal microsomes, 5 mM KCl, pH 6.4
Experimental: The compounds indicated in the above examples were tested for their inhibitory activity on proton pump (H+/K+-ATPase) activity as follows by applying the method disclosed in the literature. According to the methods of Nobuyuki Takahashi and Yukinori Take [J Pharmacol Exp Ther. 2018 February; 364(2):275-286], the gastric mucosal microsome fraction was isolated from the porcine stomach. The stomach isolated from the pig was washed first with tap water, only the fundus was cut, and then washed (a second time) with cold PBS. The gastric mucosa was separated by scraping, homogenized with 250 mM sucrose solution, and centrifuged at 20,000 g at 4° C. for 30 minutes. Only the supernatant was centrifuged at 115,000 g at 4° C. for 30 minutes, and the precipitate was suspended in 250 mM sucrose solution, added to cover with 7% Ficoll solution, and centrifuged at 135,000 g at 4° C. for 60 minutes. The microsome fraction formed at the interface was recovered and suspended in 250 mM sucrose solution, and centrifuged at 135,000 g, 4° C. for 60 minutes, and the precipitate was dissolved in 0.9% NaCl. The isolated gastric mucosal microsome fraction was quantified by using the Bicinchoninic Acid (BCA) kit (Thermo).
60 μl of enzyme reaction solution (a test compound at a given concentration, […] of gastric mucosal microsomes, 3 mM of MgSO4, 5 mM of KCl, 40 mM of Tris-HCl pH 6.4, and 0.5 mM of adenosine triphosphate) was added to each well of a 96-well plate and reacted at 37° C. for 60 minutes, and 30 μl of 10% SIDS was added to stop the enzyme reaction. 200 μl of detection solution (in which 10% L-ascorbic acid with pH 5.0 was mixed with 35 mM of ammonium molybdate tetrahydrate/15 mM of zinc acetate with pH 5.0 at the ratio of 4:1) was added and reacted at 37° C. for 30 minutes, and the absorbance value was measured at 750 nm by using a microplate reader (MULTISKAN GO, Thermo). The inhibition rate of proton pump activity was expressed as I050, which is 50% inhibition of enzyme activity, by using GraphPad Prism 5. In Table 1 below, an I050 value of 100 nM or less is indicated by +++, an I050 value of 101 to 200 nM is indicated by ++, and an I050 value of above 200 nM is indicated by +.

Chain of proton pump (H+/K+-ATPase) (P19156 2-1034): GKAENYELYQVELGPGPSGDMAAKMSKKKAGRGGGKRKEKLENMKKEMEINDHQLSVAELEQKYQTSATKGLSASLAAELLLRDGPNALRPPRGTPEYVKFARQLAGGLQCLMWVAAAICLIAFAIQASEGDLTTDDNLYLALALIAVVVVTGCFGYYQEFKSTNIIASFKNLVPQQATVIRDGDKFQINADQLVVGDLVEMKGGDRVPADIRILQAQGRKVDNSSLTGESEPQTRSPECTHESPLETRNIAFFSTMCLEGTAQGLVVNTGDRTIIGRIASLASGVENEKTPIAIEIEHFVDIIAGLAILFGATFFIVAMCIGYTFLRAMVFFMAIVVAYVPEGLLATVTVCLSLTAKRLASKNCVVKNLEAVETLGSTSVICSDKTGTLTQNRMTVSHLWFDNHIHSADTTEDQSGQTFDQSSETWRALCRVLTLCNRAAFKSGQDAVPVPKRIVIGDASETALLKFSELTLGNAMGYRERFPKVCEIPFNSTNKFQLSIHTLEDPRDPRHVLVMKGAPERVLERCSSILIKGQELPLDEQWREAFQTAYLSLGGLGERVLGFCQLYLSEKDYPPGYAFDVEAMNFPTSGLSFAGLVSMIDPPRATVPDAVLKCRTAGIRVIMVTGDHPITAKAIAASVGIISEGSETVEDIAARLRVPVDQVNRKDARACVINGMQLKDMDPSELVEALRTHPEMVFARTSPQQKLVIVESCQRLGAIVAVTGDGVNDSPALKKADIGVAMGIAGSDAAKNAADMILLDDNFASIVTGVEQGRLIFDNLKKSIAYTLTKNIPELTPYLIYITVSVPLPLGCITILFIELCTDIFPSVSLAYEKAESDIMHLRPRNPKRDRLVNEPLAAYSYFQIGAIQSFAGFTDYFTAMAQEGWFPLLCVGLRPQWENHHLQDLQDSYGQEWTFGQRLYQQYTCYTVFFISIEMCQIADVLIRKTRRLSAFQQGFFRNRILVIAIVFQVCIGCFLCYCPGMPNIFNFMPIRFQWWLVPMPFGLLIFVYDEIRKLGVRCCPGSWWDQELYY
Chain of proton pump (H+/K+-ATPase) (P18434 whole entry partner): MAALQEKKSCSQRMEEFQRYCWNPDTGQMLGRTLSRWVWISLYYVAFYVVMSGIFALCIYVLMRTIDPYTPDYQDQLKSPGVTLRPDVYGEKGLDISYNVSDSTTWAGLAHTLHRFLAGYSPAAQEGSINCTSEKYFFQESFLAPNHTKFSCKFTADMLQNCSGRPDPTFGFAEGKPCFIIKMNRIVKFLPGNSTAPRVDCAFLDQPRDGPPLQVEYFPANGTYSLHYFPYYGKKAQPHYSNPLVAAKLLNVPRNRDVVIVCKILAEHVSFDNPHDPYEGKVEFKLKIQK

[2H]C([2H])([2H])NCc1cc(-c2ccccc2F)n(S(=O)(=O)c2ccc(F)cc2)c1 [Example 7, N-((5-(2-fluorophenyl)-1-((4-fluorophenyl)sulfonyl)-1H-pyrrol-3-yl)methyl)methan-d3-amine]
AUC(0-t) ([1]; intravenous 0.2 mg/kg): 423 ng·h/mL
half-life ([1]; intravenous 0.2 mg/kg): 214 min
AUC(0-t) ([1]; oral 2 mg/kg (1 mg/ml)): 6940 ng·h/mL
Cmax ([1]; oral 2 mg/kg (1 mg/ml)): 632 ng/mL
Tmax ([1]; oral 2 mg/kg (1 mg/ml)): 1.53 h
half-life ([1]; oral 2 mg/kg (1 mg/ml)): 333 min
AUC(0-t) ([1]; oral 6 mg/kg (3 mg/ml)): 15100 ng·h/mL
Cmax ([1]; oral 6 mg/kg (3 mg/ml)): 1120 ng/mL
Tmax ([1]; oral 6 mg/kg (3 mg/ml)): 3.67 h
half-life ([1]; oral 6 mg/kg (3 mg/ml)): 449 min
AUC(0-t) ([1]; oral 20 mg/kg (10 mg/ml)): 49300 ng·h/mL
Cmax ([1]; oral 20 mg/kg (10 mg/ml)): 3350 ng/mL
Tmax ([1]; oral 20 mg/kg (10 mg/ml)): 3.33 h
half-life ([1]; oral 20 mg/kg (10 mg/ml)): 1100 min
bioavailability ([1]; 2 mg/kg, oral 2 mg/kg (1 mg/ml)): ≥ 100%
bioavailability ([1]; 6 mg/kg, oral 6 mg/kg (3 mg/ml)): ≥ 100%
bioavailability ([1]; 20 mg/kg, oral 20 mg/kg (10 mg/ml)): ≥ 100%
IC50 ([2]; read-out: Proton pump inhibitory activity (IC50)): 25 nM
IC50 ([2]; read-out: Proton pump inhibitory activity (IC50, nM), class symbol): ≤ 100 nM
